Reference: patent publication US7834164B2 (priority 2006, dated 2010)
Bridge positions count the residues as written; N and C are the ends. Square brackets hold non-standard residues; d marks the D form. Peptide text beside a SMILES is read from it. 1Nal = N[C@@H](Cc1cccc2ccccc12)C(=O)O

How the values were obtained:
human Kv1.1 = target: T1, human Kv1.1 (Homo sapiens, UniProt Q09470); type: cell-based; details: read-out: Kv1.1 Analogue Activity (IC50)
T1 construct: expressed in transfected cells; host or cells: HEK293

[1] = tested on: IFNγ production from human PBMCs; type: cell-based
[2] = tested on: IFNγ production from human PBMCs; type: cell-based; remark: listed apart in the source
[3] = tested on: AT-EAE model of multiple sclerosis; set-up: species or system Lewis rats; details: rat, in vivo, sc
[4] = tested on: IL-2 production in human whole blood; type: cell-based
[5] = tested on: IFN-g production in human whole blood; type: cell-based
[6] = tested on: CD40L on T cells in human whole blood; type: cell-based
[7] = tested on: IL-2R on T cells in human whole blood; type: cell-based
[8] = rat, in vivo, iv, 1 mg/kg

T1 sequence (Q09470 whole entry): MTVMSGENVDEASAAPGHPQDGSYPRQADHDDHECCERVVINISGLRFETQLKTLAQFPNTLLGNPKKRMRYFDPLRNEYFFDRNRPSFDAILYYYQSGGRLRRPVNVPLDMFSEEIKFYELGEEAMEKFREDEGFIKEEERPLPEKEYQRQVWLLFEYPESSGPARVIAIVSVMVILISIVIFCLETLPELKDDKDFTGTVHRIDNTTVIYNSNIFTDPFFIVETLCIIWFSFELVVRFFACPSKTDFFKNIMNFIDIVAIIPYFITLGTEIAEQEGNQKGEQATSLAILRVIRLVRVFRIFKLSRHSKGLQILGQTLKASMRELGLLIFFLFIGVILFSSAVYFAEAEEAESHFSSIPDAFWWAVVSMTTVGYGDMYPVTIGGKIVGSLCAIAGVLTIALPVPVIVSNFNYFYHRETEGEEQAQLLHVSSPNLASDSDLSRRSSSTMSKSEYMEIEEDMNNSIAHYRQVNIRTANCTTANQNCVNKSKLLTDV

Row | Structure (SMILES) | IC50 (human Kv1.1) [pM] | extent of inhibition of IFNγ production [1] | extent of inhibition of IFNg production [2] | average body weight lost [3] [g] | disease severity and survival (in words) [3] | onset of disease [3] [days] | thapsigargin-induced IL-2 production in human whole blood (in words) [4] | thapsigargin-induced IFN-g production in human whole blood (in words) [5] | thapsigargin-induced upregulation of CD40L on T cells in human whole blood (in words) [6] | thapsigargin-induced upregulation of the IL-2R on T cells in human whole blood (in words) [7] | time of significant suppression of Kv1.3 current (<70 POC) by 5% serum Test solutions [8] [h]
1 | CC[C@H](C)[C@@H]1NC(=O)[C@H](Cc2cccc3ccccc23)NC(=O)[C@@H](NC(=O)[C@H](CCCCN)NC(=O)[C@@H](NC(=O)[C@H](CC(N)=O)NC(=O)[C@@H](NC(=O)[C@@H](NC(=O)[C@@H](NC(=O)CN)C(C)C)[C@@H](C)CC)[C@@H](C)CC)C(C)C)CSSC[C@@H]2NC(=O)[C@H](CCCCN)NC(=O)CNC(=O)[C@H](Cc3ccccc3)NC(=O)[C@H](CCCNC(=N)N)NC(=O)[C@H](CCSC)NC(=O)CNC(=O)[C@H](C)NC(=O)[C@H](CCCCN)NC(=O)[C@H](CCCCN)NC(=O)[C@@H]3CSSC[C@@H](C(=O)N[C@H](C(=O)N4CCC[C@H]4C(=O)N[C@@H](CCCCN)C(=O)O)[C@@H](C)O)NC(=O)[C@H](Cc4c[nH]cn4)NC(=O)[C@H](CSSC[C@H](NC(=O)[C@H](CCC(N)=O)NC(=O)[C@H](CCCNC(=N)N)NC(=O)[C@H](CO)NC1=O)C(=O)N[C@@H](CC(C)C)C(=O)N[C@@H](CCC(=O)O)C(=O)N1CCC[C@H]1C(=O)N3)NC(=O)[C@H](CCCCN)NC(=O)CNC(=O)[C@H](CC(N)=O)NC(=O)[C@H](CCSC)NC2=O [K9Nal] (H-GVIINVKC[1Nal]ISRQCLEPCKKAGMRFGKCMNGKCHCTPK-OH; disulfide 8-28, 14-33, 18-35) | 292 |  |  |  |  |  |  |  |  |  | 
2 | CC[C@H](C)[C@@H]1NC(=O)[C@@H](NC(=O)[C@H](CO)NC(=O)[C@@H](N)CCCNC(=N)N)CSSC[C@@H](C(=O)O)NC(=O)[C@H]([C@@H](C)O)NC(=O)CNC(=O)[C@@H]2CSSC[C@@H]3NC(=O)[C@H](CCC(N)=O)NC(=O)[C@H](Cc4ccccc4)NC(=O)[C@H](C)NC(=O)[C@H]([C@@H](C)O)NC(=O)[C@H](CSSC[C@H](NC(=O)[C@H](Cc4ccccc4)NC(=O)[C@H](CO)NC(=O)[C@H](CC(C)C)NC(=O)[C@H](CCCNC(=N)N)NC(=O)[C@H](Cc4ccc(O)cc4)NC(=O)[C@H](CCCCN)NC(=O)[C@H](CCSC)NC(=O)[C@H](CO)NC(=O)[C@H](Cc4cnc[nH]4)NC(=O)[C@H](CCCCN)NC3=O)C(=O)N[C@@H](CCCNC(=N)N)C(=O)N[C@@H](CCCCN)C(=O)N[C@@H]([C@@H](C)O)C(=O)N2)NC(=O)[C@H](CCCNC(=N)N)NC(=O)[C@H](CO)NC(=O)[C@H](CCCCN)NC(=O)[C@@H]2CCCN2C(=O)[C@H]([C@@H](C)CC)NC(=O)[C@H]([C@@H](C)O)NC(=O)[C@H](CC(=O)O)NC1=O [ShK] |  | partial inhibition | only partial inhibition | 30 | developed severe disease and died | 4 | suppressed | suppressed | suppressed | suppressed | ≤ 1
